Data set [1] concerns Human immunodeficiency virus 1. Nature of the data set: Antiviral activity against […] HIV1 with protease A71V, I84V L90M mutant by cell free assay. The class given is functional, organism-based.
The test system of data set [2] is Human immunodeficiency virus 1. Nature of the data set: Antiviral activity against HIV1 with protease V32I, M46I V82A mutant by cell free assay. The class given is functional, organism-based.
The nature of data set [3]: Cytotoxicity against human MT4 cells assessed as decrease in cell proliferation after 5 days by XTT assay. The data set is classed as cell-based. Background: Formazan colour is commonly taken as a measure of viable cells.
Data set [4] can be described thus: Metabolic stability in liver microsomes assessed as intrinsic clearance. The class given is ADME, Microsome.
Data set [5] relates to Human immunodeficiency virus 1. Nature of the data set: Antiviral activity against HIV1 with protease M46I, V82F, I84V mutant by cell free assay. The data set is classed as functional, organism-based.
Data set [6] has as its system Human immunodeficiency virus 1. Nature of the data set: Antiviral activity against HIV1 infected in human MT4 cells assessed as inhibition of virus-induced cytopathogenicity after 6 days by XTT assay. The data set is classed as functional, organism-based. The note with it: Human immunodeficiency virus 1, MT4, 144 h. Background: Protection from cytopathic effect is a common read-out in antiviral testing.

For data set [7], the target named is Human immunodeficiency virus type 1 protease (Human immunodeficiency virus 1, UniProt Q72874, I84V/L63P/V82T). Nature of the data set: Inhibition of HIV1 protease L63P, V82T, I84V mutant.
Human immunodeficiency virus type 1 protease, sequence (Q72874 entry or part of it I84V/L63P/V82T): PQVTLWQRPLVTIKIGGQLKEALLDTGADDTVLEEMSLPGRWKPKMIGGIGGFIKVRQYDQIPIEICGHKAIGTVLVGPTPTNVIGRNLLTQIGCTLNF
The test system of data set [8] is Human immunodeficiency virus 1. The experiment in a line: Antiviral activity against HIV1 with protease V32I, M46I A71V, V82A mutant by cell free assay. The class given is functional, organism-based.
Data set [9] can be described thus: Apparent permeability across human Caco-2 cells. The data set is classed as ADME, cell-based. (Caco-2 monolayers are a common model of the intestinal barrier.)
The target in another data set is Protease (Human immunodeficiency virus 1, UniProt Q9YQ12). The experiment in a line: Inhibition of HIV1 protease expressed in Escherichia coli by fluorometric assay.
Protease, sequence (Q9YQ12 whole entry): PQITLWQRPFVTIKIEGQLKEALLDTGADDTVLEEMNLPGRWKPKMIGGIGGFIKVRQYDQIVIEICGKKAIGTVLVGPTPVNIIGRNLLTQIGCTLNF
The subject of data set [10] is Human immunodeficiency virus 1. The experiment in a line: Antiviral activity against HIV1 with protease G48V, L90M mutant by cell free assay. The data set is classed as functional, organism-based.

Turning to `COC(=O)N[C@H](C(=O)NN(CC[C@@](O)(Cc1ccccc1)C(=O)N[C@H]1c2ccccc2C[C@H]1O)Cc1ccc(Br)cc1)C(C)(C)C`, the EC50 in data set [1] came to 44 nM; in data set [2], 74 nM; in data set [5] it was 240 nM; in data set [6], 40 nM; in [8] it was 70 nM; in [10], 8 nM. Also, the CC50 at 120 h in data set [3] was found to be 7900 nM. Moreover, in [4], the clearance was over 300 µL/min/mg. For the same compound, the results for the Ki (in data set [7]; at Protease) were 30 nM and 2.9 nM, respectively. Further, in data set [9], the Papp came out at 42 ×10⁻⁶ cm/s.
As for `COC(=O)N[C@H](C(=O)NN(CC[C@@](O)(Cc1ccccc1)C(=O)N[C@H]1c2ccccc2C[C@H]1O)Cc1ccc(-c2cccnc2)cc1)C(C)(C)C`, the EC50 amounted to 19 nM in [1]; 27 nM in data set [2]; 600 nM in [5]; 9 nM in data set [6]; 14 nM in data set [8]; 10 nM in data set [10]. Moreover, the CC50 at 120 h in data set [3] was 4900 nM. The clearance in data set [4] is over 300 µL/min/mg. Further, the Ki is 16 nM in data set [7] and 1.2 nM at Protease. Further, in data set [9], the Papp amounted to 26 ×10⁻⁶ cm/s.
As to `COCCNC(=O)[C@@H](NC(=O)[C@](O)(CCN(Cc1ccc(Br)cc1)NC(=O)[C@@H](NC(=O)OC)C(C)(C)C)Cc1ccccc1)C(C)C`, the CC50 at 120 h in [3] is over 10000 nM. Besides, in data set [6], the EC50 is over 10000 nM. The Ki on Protease came out at 2750 nM.
Consider `COC(=O)N[C@H](C(=O)NN(CC[C@@](O)(Cc1ccccc1)C(=O)N[C@H]1c2ccccc2C[C@H]1O)Cc1ccc(-c2cc(F)cc(F)c2)cc1)C(C)(C)C`, for which the CC50 at 120 h in [3] is over 10000 nM. Also, the EC50 in data set [6] turned out to be 13 nM. This compound returned a Ki on Protease of 11 nM.
On to `Cc1cccc(C)c1OCC(=O)N[C@@H](Cc1ccccc1)[C@@H](O)C[C@H](Cc1ccccc1)NC(=O)[C@H](C(C)C)N1CCCNC1=O` [LOPINAVIR], for which the half-maximal effective concentration (EC50) in data set [6] came to 10 nM.
Turning to `COC(=O)N[C@H](C(=O)NN(CC[C@@](O)(Cc1ccccc1)C(=O)N[C@H]1c2ccccc2C[C@H]1O)Cc1ccc(-c2ccccn2)cc1)C(C)(C)C`, the 50% effective concentration (EC50) in data set [1] turned out to be 7 nM; in data set [2] it was 24 nM; in data set [5] it was 130 nM; in data set [6] it was 7 nM; in [8], 6 nM; in data set [10], 8 nM. Moreover, the CC50 at 120 h in data set [3] is over 10000 nM. Moreover, the clearance in [4] is 20 µL/min/mg. The apparent permeability (Papp) in [9] turned out to be 3.5 ×10⁻⁶ cm/s.
Regarding `COC(=O)N[C@H](C(=O)NN(CC[C@@](O)(Cc1ccccc1)C(=O)N[C@H]1c2ccccc2C[C@H]1O)Cc1ccccc1)C(C)(C)C`, in [3], the CC50 at 120 h is over 10000 nM. In addition, the EC50 in [6] is 190 nM. For the same compound, affinity at Protease was put at a Ki of 2.3 nM.
Regarding `COC(=O)N[C@H](C(=O)NN(Cc1ccccc1)C[C@](O)(Cc1ccccc1)C(=O)N[C@H]1c2ccccc2C[C@H]1O)C(C)(C)C`, the 50% effective concentration (EC50) in [6] is over 10000 nM. The compound further returned a Ki on Protease of over 5000 nM.
For `CC(C)(C)NC(=O)[C@@H]1CN(Cc2cccnc2)CCN1C[C@@H](O)C[C@@H](Cc1ccccc1)C(=O)N[C@H]1c2ccccc2C[C@H]1O`, the EC50 in data set [6] turned out to be 50 nM.
Take `COC(=O)N[C@H](C(=O)NN(CC[C@@](O)(Cc1ccccc1)C(=O)N[C@H]1c2ccccc2C[C@H]1O)Cc1ccc(-c2cnn(C)c2)cc1)C(C)(C)C`: in [3], the CC50 at 120 h was over 10000 nM. Besides, the concentration for a half-maximal effect (EC50) in [6] is 10 nM. Also, affinity at Protease was put at a Ki of 1.7 nM.
`COC(=O)N[C@H](C(=O)NN(CC[C@@](O)(Cc1ccccc1)C(=O)N[C@H]1c2ccccc2C[C@H]1O)Cc1ccc(-c2ccc(NC(C)=O)cc2)cc1)C(C)(C)C`: the half-maximal cytotoxic concentration (CC50) at 120 h in data set [3] is over 10000 nM. For the same compound, the EC50 in [6] turned out to be 30 nM. At Protease, the Ki is 1.8 nM.
Consider `COC(=O)N[C@H](C(=O)NN(CCc1ccccc1)CC[C@@](O)(Cc1ccccc1)C(=O)N[C@H]1c2ccccc2C[C@H]1O)C(C)(C)C`, for which the EC50 in data set [6] was 6800 nM. The compound also registered a Ki on Protease of 8.2 nM.
As for `CNC(=O)[C@@H](NC(=O)[C@](O)(CCN(Cc1ccc(Br)cc1)NC(=O)[C@@H](NC(=O)OC)C(C)(C)C)Cc1ccccc1)C(C)(C)C`, in data set [3], the CC50 at 120 h was over 10000 nM. Further, the concentration for a half-maximal effect (EC50) in [6] was over 10000 nM. This compound also registered a Ki at Protease of 2200 nM.
As for `COC(=O)N[C@H](C(=O)NN(CC[C@](O)(Cc1ccccc1)C(=O)N[C@H]1c2ccccc2C[C@H]1O)Cc1ccc(Br)cc1)C(C)(C)C`, the CC50 at 120 h in [3] is over 10000 nM. For the same compound, the EC50 in [6] was over 10000 nM. Besides, the Ki at Protease is over 5000 nM.
Regarding `COC(=O)N[C@H](C(=O)NN(CC[C@@](O)(Cc1ccccc1)C(=O)N[C@H]1c2ccccc2C[C@H]1O)Cc1ccc(-c2ccccc2)cc1)C(C)(C)C`, the CC50 at 120 h in data set [3] was over 10000 nM. Also, the EC50 in [6] came to 8 nM. This compound also gave a Ki on Protease of 12 nM.
Turning to `CNC(=O)[C@@H](NC(=O)[C@](O)(CCN(Cc1ccc(Br)cc1)NC(=O)[C@@H](NC(=O)OC)C(C)(C)C)Cc1ccccc1)C(C)C`, the CC50 at 120 h in data set [3] was over 10000 nM. Moreover, the EC50 in data set [6] was over 10000 nM. The compound also returned a Ki on Protease of 1240 nM.
Regarding `COC(=O)N[C@H](C(=O)NN(CC[C@@](O)(Cc1ccccc1)C(=O)N[C@H]1c2ccccc2C[C@H]1O)Cc1ccc(-c2ccncc2)cc1)C(C)(C)C`, in data set [3], the 50% cytotoxic concentration (CC50) at 120 h was over 10000 nM. For the same compound, the EC50 in data set [6] was determined as 3 nM. For the same compound, affinity at Protease was put at a Ki of 2.3 nM.
As for `COC(=O)N[C@H](C(=O)N(Cc1ccc(Br)cc1)C[C@@](O)(Cc1ccccc1)C(=O)N[C@H]1c2ccccc2C[C@H]1O)C(C)(C)C`, the CC50 at 120 h in data set [3] was over 10000 nM. In data set [6], the EC50 was over 10000 nM.
As to `COC(=O)N[C@H](C(=O)NN(Cc1ccccc1)C[C@@](O)(Cc1ccccc1)C(=O)N[C@H]1c2ccccc2C[C@H]1O)C(C)(C)C`, the EC50 in [6] was over 10000 nM. Further, the Ki at Protease is over 5000 nM.
As to `COC(=O)N[C@H](C(=O)NN(CC[C@@](O)(Cc1ccccc1)C(=O)N[C@H]1c2ccccc2C[C@H]1O)Cc1ccc(-c2ccc3c(c2)OCO3)cc1)C(C)(C)C`, the CC50 at 120 h in [3] is 6100 nM. Moreover, the EC50 in data set [6] stood at 3 nM. This compound also came in with a Ki at Protease of 8 nM.
Regarding `COC(=O)N[C@H](C(=O)NN(Cc1ccc(-c2cccnc2)cc1)C[C@@](O)(Cc1ccccc1)C(=O)N[C@H]1c2ccccc2C[C@H]1O)C(C)(C)C`, in data set [3], the CC50 at 120 h is over 10000 nM. Also, the clearance in data set [4] came out at 154 µL/min/mg.
On to `CC(C)CN(C[C@@H](O)[C@H](Cc1ccccc1)NC(=O)O[C@H]1CO[C@H]2OCC[C@H]21)S(=O)(=O)c1ccc(N)cc1`, for which the EC50 in data set [6] amounted to 4 nM.
The compound `COC(=O)N[C@H](C(=O)N[C@@H](Cc1ccccc1)[C@@H](O)CN(Cc1ccc(-c2ccccn2)cc1)NC(=O)[C@@H](NC(=O)OC)C(C)(C)C)C(C)(C)C` [ATAZANAVIR] had a Ki on Protease of 0.5 nM.
Turning to `CNC(=O)[C@@H](NC(=O)[C@@](O)(CCN(Cc1ccc(Br)cc1)NC(=O)[C@@H](NC(=O)OC)C(C)(C)C)Cc1ccccc1)C(C)(C)C`, in [3], the CC50 at 120 h is over 10000 nM. In addition, the EC50 in data set [6] is 72 nM. On Protease, this compound showed a Ki of 1.7 nM.
Regarding `CC(C)c1nc(CN(C)C(=O)N[C@H](C(=O)N[C@@H](Cc2ccccc2)C[C@H](O)[C@H](Cc2ccccc2)NC(=O)OCc2cncs2)C(C)C)cs1` [RITONAVIR], the EC50 in data set [6] stood at 50 nM.
Turning to `COCCNC(=O)[C@@H](NC(=O)[C@@](O)(CCN(Cc1ccc(Br)cc1)NC(=O)[C@@H](NC(=O)OC)C(C)(C)C)Cc1ccccc1)C(C)C`, the CC50 at 120 h in data set [3] is over 10000 nM. Also, the EC50 in data set [6] is 170 nM. On Protease, this compound showed a Ki of 3.2 nM.
As to `COC(=O)N[C@H](C(=O)NN(CC[C@@](O)(Cc1ccccc1)C(=O)N[C@H]1c2ccccc2C[C@H]1O)Cc1ccc(-c2c(C)noc2C)cc1)C(C)(C)C`, in data set [3], the CC50 at 120 h was over 10000 nM. Further, the EC50 in data set [6] turned out to be 5 nM. The compound further displayed a Ki on Protease of 2.8 nM.
Turning to `CNC(=O)[C@@H](NC(=O)[C@@](O)(CCN(Cc1ccc(Br)cc1)NC(=O)[C@@H](NC(=O)OC)C(C)(C)C)Cc1ccccc1)C(C)C`, the CC50 at 120 h in data set [3] is over 10000 nM. In data set [6], the EC50 amounted to 160 nM. The compound further returned an inhibition constant (Ki) at Protease of 2.9 nM.

In general, EC50 refers to the concentration that produces a half-maximal response. As usually defined, the CC50 is the concentration at which the toxic effect on the cells reaches its halfway point. The term Ki denotes a measure of affinity in units of concentration, obtained from inhibition or displacement. The low end stands for tighter binding, the high end for weaker binding. One may read the Papp as the rate of passage across a membrane or cell layer, normalised by area and donor concentration.

(Values after ChEMBL document CHEMBL1154744, “HIV-1 protease inhibitors with a transition-state mimic comprising a tertiary alcohol: improved antiviral activity in cells” (J Med Chem, 2010).)
